Reference: US8778990B2, “Betulinic acid derivatives and methods of use thereof” (Trustees of Dartmouth College, priority 2008, dated 2014)

System: not listed separately
Assay: TP levels in mouse brain after dietary dosing (LC/MS)
Assay type: in vivo
Details: CD-1 mice fed 200 or 400 mg/kg diet for 3.5 days; compared with TP-319
Method: CD-1 mice were fed either 200 or 400 mg/kg diet of either TP-319 or TP-500 for 3.5 days, and TP levels in the brains of the mice were analyzed by LC/MS. The structures of TP-319 and TP-500 are provided herein.

SMILES | concentration in the brain
CC1(C)CC[C@]2(C(=O)NCC(F)(F)F)CC[C@]3(C)[C@H](C(=O)C=C4[C@@]5(C)C=C(C#N)C(=O)C(C)(C)[C@@H]5CC[C@]43C)[C@@H]2C1 [TP-500, reference compound] | significantly higher concentration in the brain than TP-319

System: RAW264.7 macrophages
Assay: Inhibition of IFNγ-induced NO production (Griess reagent)
Assay type: cell-based
Details: Mus musculus; RAW264.7, 20 ng/mL IFNγ, 2 h pre-treatment, 24 h
Method: RAW264.7 macrophages were pre-treated with DMSO or drugs at various concentrations (nM) for 2 hours, and subsequently treated with 20 ng/ml IFNγ for 24 hours. NO concentration in media was determined using a Griess reagent system; cell viability was determined using WST-1 reagent. The betulinic acid derivatives are identified by their TP numbers, as shown herein and described in Example 5.
Nitric Oxide Production and Cell Viability. RAW264.7 macrophages were pre-treated with DMSO or drugs for 2 hours, and subsequently treated with recombinant mouse IFN-γ (Sigma) for 24 hours. NO concentration in media was determined using the Griess reagent system (Promega). Cell viability was determined using WST-1 reagent (Roche).

SMILES | IC50 [µM]
C=C(C)[C@@H]1CC[C@]2(C(=O)n3ccnc3)CC[C@]3(C)[C@H](CC[C@@H]4[C@@]5(C)C=C(C#N)C(=O)C(C)(C)[C@@H]5CC[C@]43C)[C@@H]12 [TP-292] | 0.071 to 0.1
C=C(C)[C@@H]1CC[C@]2(C(=O)NCC)CC[C@]3(C)[C@H](CCC4[C@@]5(C)C=C(C#N)C(=O)C(C)(C)[C@@H]5CC[C@]43C)[C@@H]12 (stereo partly shown) [TP-321, reference compound] | 0.088
C=C(C)[C@@H]1CC[C@]2(C(=O)NCC(F)(F)F)CC[C@]3(C)[C@H](CC[C@@H]4[C@@]5(C)C=C(C#N)C(=O)C(C)(C)[C@@H]5CC[C@]43C)[C@@H]12 [TP-342, 2-Cyano-N-(2,2,2-trifluoroethyl)-3-oxolupa-1,20(29)-dien-28-amide] | 0.38
C=C(C)[C@@H]1CC[C@]2(C(=O)NCC(F)F)CC[C@]3(C)[C@H](CC[C@@H]4[C@@]5(C)C=C(C#N)C(=O)C(C)(C)[C@@H]5CC[C@]43C)[C@@H]12 [TP-343, 2-Cyano-N-(2,2-difluoroethyl)-3-oxolupa-1,20(29)-dien-28-amide] | 0.13
C=C(C)[C@@H]1CC[C@]2(C(=O)NCCF)CC[C@]3(C)[C@H](CC[C@@H]4[C@@]5(C)C=C(C#N)C(=O)C(C)(C)[C@@H]5CC[C@]43C)[C@@H]12 [TP-344, 2-Cyano-N-(2-fluoroethyl)-3-oxolupa-1,20(29)-dien-28-amide] | 0.18
C=C(C)[C@@H]1CC[C@]2(C#N)CC[C@]3(C)[C@H](CC[C@@H]4[C@@]5(C)C=C(C#N)C(=O)C(C)(C)[C@@H]5CC[C@]43C)[C@@H]12 [TP-345, 2-Cyano-3-oxolupa-1,20(29)-dien-28-onitrile] | 0.01 to 0.16
